Holding throughout (experiment): Test Example 11: herbicidal effect test by soil treatment in paddy field
What all share (type): in vivo
What all share (details): 120 g/10a active ingredient, 14 days after treatment

In assay [1] the test system is Lindernia pyxidaria. An excerpt: (§1) A Wagner pot having an area of 1/10000 are was filled with paddy field soil and after adding water, a chemical fertilizer (N:P:K=17:17:17) was mixed, followed by puddling. Thereafter, 30 grains of each of Echinochloa crus-galli, broad-leaved weed (Lindernia pyxidaria, Monochoria vaginalis) and Scirpus juncoides seeds were sown to a depth of 0 to 1 cm. Immediately after the sowing, the pot was flooded, and the depth of water was kept at about 3 cm. The pot was subsequently managed in a glass greenhouse. Just after that, an emulsifiable concentrate prepared according to Formulation Example 15 by using the compound shown in Table 9 below was diluted with water, and a predetermined amount of the water-diluted formulation was added dropwise. The application rate of the active ingredient, by conversion, corresponded to 120 g per 10 are.
(§2) This test was performed with two replications per one formulation concentration plot, and 14 days after the formulation treatments, the weed suppression rate (%) was determined according to the following equation (Math. 2). Weed suppression rate (%)=(1−average dry weight (g) of plants in treated plots/average dry weight (g) of plants in untreated plots)×100 [Math. 2]

The subject of assay [2] is Scirpus juncoides.
From the text: as §1, §2

The subject of assay [3] is Echinochloa crus-galli.
From the text: as §1, §2

The test system of assay [4] is Monochoria vaginalis.
From the text: as §1, §2

Turning to `Cc1ccc(N(C(=O)n2cnn(S(=O)(=O)c3c(F)cccc3F)c2=O)C(C)C)c(F)c1` [Compound 11-787], the “Weed suppression rate (%) Lindemia pyxidaria” value in assay [1] stood at 80%. Also, in assay [2], the “Weed suppression rate (%) Scirpus juncoides” value is reported as 90%. Also, in assay [3], the “Weed suppression rate (%) Echinochloa crus-galli” value was determined as 90%. In addition, in assay [4], the “Weed suppression rate (%) Monochoria vaginalis” value amounted to 80%.
With `CC(C)N(C(=O)n1cnn(S(=O)(=O)CCl)c1=O)c1ccc(C(F)(F)F)cc1F` [Compound 11-126], the “Weed suppression rate (%) Lindemia pyxidaria” value in assay [1] worked out at 100%. Moreover, in assay [2], the “Weed suppression rate (%) Scirpus juncoides” value is reported as 30%. For the same compound, the “Weed suppression rate (%) Echinochloa crus-galli” value in assay [3] was 100%. For the same compound, the “Weed suppression rate (%) Monochoria vaginalis” value in assay [4] came to 60%.
`CC(C)N(C(=O)n1cnn(S(=O)(=O)c2ccc(C(C)(C)C)cc2)c1=O)c1ccc(C(F)(F)F)cc1F` [Compound 11-699]: the “Weed suppression rate (%) Lindemia pyxidaria” value in assay [1] is 90%. For the same compound, the “Weed suppression rate (%) Scirpus juncoides” value in assay [2] is on record as 30%. Moreover, in assay [3], the “Weed suppression rate (%) Echinochloa crus-galli” value is listed as 90%. Also, the “Weed suppression rate (%) Monochoria vaginalis” value in assay [4] stood at 70%.
Consider `Cc1cc(C)c(S(=O)(=O)n2ncn(C(=O)N(c3c(F)cccc3F)C(C)C)c2=O)c(C)c1` [Compound 11-865], for which, in assay [1], the “Weed suppression rate (%) Lindemia pyxidaria” value came out at 70%. For the same compound, in assay [2], the “Weed suppression rate (%) Scirpus juncoides” value is reported as 70%. In assay [3], the “Weed suppression rate (%) Echinochloa crus-galli” value turned out to be 80%. Moreover, the “Weed suppression rate (%) Monochoria vaginalis” value in assay [4] was 70%.
On to `CC(C)N(C(=O)n1cnn(S(=O)(=O)c2cccc(C(F)(F)F)c2)c1=O)c1c(F)cc(F)cc1F` [Compound 11-727], for which the “Weed suppression rate (%) Lindemia pyxidaria” value in assay [1] is listed as 80%. Besides, in assay [2], the “Weed suppression rate (%) Scirpus juncoides” value came to 80%. In assay [3], the “Weed suppression rate (%) Echinochloa crus-galli” value is listed as 90%. For the same compound, the “Weed suppression rate (%) Monochoria vaginalis” value in assay [4] amounted to 60%.
Turning to `CC(C)N(C(=O)n1cnn(S(=O)(=O)c2ccc(Cl)cc2)c1=O)c1ccccc1` [Compound 11-577], in assay [1], the “Weed suppression rate (%) Lindemia pyxidaria” value turned out to be 60%. Moreover, the “Weed suppression rate (%) Scirpus juncoides” value in assay [2] was 0%. In addition, the “Weed suppression rate (%) Echinochloa crus-galli” value in assay [3] is 40%. The “Weed suppression rate (%) Monochoria vaginalis” value in assay [4] is recorded as 0%.
As for `CC(C)N(C(=O)n1cnn(S(=O)(=O)c2c(F)c(F)c(F)c(F)c2F)c1=O)c1ccc(F)c(F)c1F` [Compound 11-814], in assay [1], the “Weed suppression rate (%) Lindemia pyxidaria” value came out at 90%. Also, the “Weed suppression rate (%) Scirpus juncoides” value in assay [2] was determined as 30%. Moreover, the “Weed suppression rate (%) Echinochloa crus-galli” value in assay [3] is given as 70%. In addition, the “Weed suppression rate (%) Monochoria vaginalis” value in assay [4] was determined as 70%.
For the compound `CCN(CC)C(=O)n1cnn(S(=O)(=O)c2ccc(Cl)cc2)c1=O` [Compound 11-576], the “Weed suppression rate (%) Lindemia pyxidaria” value in assay [1] is 0%. Also, in assay [2], the “Weed suppression rate (%) Scirpus juncoides” value was 0%. The “Weed suppression rate (%) Echinochloa crus-galli” value in assay [3] is 40%. In addition, the “Weed suppression rate (%) Monochoria vaginalis” value in assay [4] came to 0%.
With `CC(C)N(C(=O)n1cnn(S(=O)(=O)c2cccc(F)c2)c1=O)c1ccc(F)cc1Cl` [Compound 11-445], the “Weed suppression rate (%) Lindemia pyxidaria” value in assay [1] turned out to be 70%. In assay [2], the “Weed suppression rate (%) Scirpus juncoides” value is listed as 100%. Further, the “Weed suppression rate (%) Echinochloa crus-galli” value in assay [3] is 100%. Further, the “Weed suppression rate (%) Monochoria vaginalis” value in assay [4] is 60%.
In the case of `Cc1cc(F)ccc1N(C(=O)n1cnn(S(=O)(=O)c2ccccc2Cl)c1=O)C(C)C` [Compound 11-525], in assay [1], the “Weed suppression rate (%) Lindemia pyxidaria” value was determined as 90%. Moreover, the “Weed suppression rate (%) Scirpus juncoides” value in assay [2] turned out to be 60%. Also, the “Weed suppression rate (%) Echinochloa crus-galli” value in assay [3] worked out at 60%. In addition, the “Weed suppression rate (%) Monochoria vaginalis” value in assay [4] came out at 90%.
As for `CC(C)N(C(=O)n1cnn(S(=O)(=O)c2cccc(Cl)c2)c1=O)c1ccc(Cl)cn1` [Compound 11-574], the “Weed suppression rate (%) Lindemia pyxidaria” value in assay [1] is 80%. In addition, the “Weed suppression rate (%) Scirpus juncoides” value in assay [2] is listed as 50%. Besides, the “Weed suppression rate (%) Echinochloa crus-galli” value in assay [3] was 90%. The “Weed suppression rate (%) Monochoria vaginalis” value in assay [4] amounted to 40%.
With `CC(C)N(C(=O)n1cnn(S(=O)(=O)c2ccc(Cl)cc2)c1=O)c1c(F)c(F)cc(F)c1F` [Compound 11-593], the “Weed suppression rate (%) Lindemia pyxidaria” value in assay [1] came to 70%. Also, in assay [2], the “Weed suppression rate (%) Scirpus juncoides” value stood at 30%. Further, in assay [3], the “Weed suppression rate (%) Echinochloa crus-galli” value was 80%. Also, the “Weed suppression rate (%) Monochoria vaginalis” value in assay [4] was determined as 60%.
For `Cc1cc(C)c(S(=O)(=O)n2ncn(C(=O)N(c3ccc(C(F)(F)F)cc3F)C(C)C)c2=O)c(C)c1` [Compound 11-880], in that order: 80%, 30%, 80% and 100%.
For `CC(C)N(C(=O)n1cnn(S(=O)(=O)c2cccc(Cl)c2)c1=O)c1cccc(F)c1F` [Compound 11-549] the same measures were 90%, 100%, 80% and 100%.
For `Cc1cc(Cl)ccc1N(C(=O)n1cnn(S(=O)(=O)c2ccc(F)cc2)c1=O)C(C)C` [Compound 11-490], in that order: 80%, 90%, 90% and 80%.
Take `CC(C)N(C(=O)n1cnn(S(=O)(=O)c2cccc(C(F)(F)F)c2)c1=O)c1ccc(F)c(F)c1F` [Compound 11-726]: the “Weed suppression rate (%) Lindemia pyxidaria” value in assay [1] came to 90%. Also, the “Weed suppression rate (%) Scirpus juncoides” value in assay [2] is 30%. Further, the “Weed suppression rate (%) Echinochloa crus-galli” value in assay [3] is 100%. The “Weed suppression rate (%) Monochoria vaginalis” value in assay [4] was found to be 30%.
With `Cc1ccc(S(=O)(=O)n2ncn(C(=O)N(c3ccc(Cl)cc3C)C(C)C)c2=O)cc1` [Compound 11-652], the “Weed suppression rate (%) Lindemia pyxidaria” value in assay [1] was found to be 80%. Further, the “Weed suppression rate (%) Scirpus juncoides” value in assay [2] was 90%. Besides, the “Weed suppression rate (%) Echinochloa crus-galli” value in assay [3] came out at 90%. Further, the “Weed suppression rate (%) Monochoria vaginalis” value in assay [4] is recorded as 80%.
As to `Cc1cc(C)c(S(=O)(=O)n2ncn(C(=O)N(c3ccc(Cl)cc3C)C(C)C)c2=O)c(C)c1` [Compound 11-878], the “Weed suppression rate (%) Lindemia pyxidaria” value in assay [1] worked out at 80%. Besides, the “Weed suppression rate (%) Scirpus juncoides” value in assay [2] is reported as 90%. In assay [3], the “Weed suppression rate (%) Echinochloa crus-galli” value is listed as 90%. In assay [4], the “Weed suppression rate (%) Monochoria vaginalis” value is reported as 80%.
`CC(C)N(C(=O)n1cnn(S(=O)(=O)c2cccc(Cl)c2)c1=O)c1ccccc1` [Compound 11-539]: the “Weed suppression rate (%) Lindemia pyxidaria” value in assay [1] was 90%. Also, in assay [2], the “Weed suppression rate (%) Scirpus juncoides” value turned out to be 40%. In assay [3], the “Weed suppression rate (%) Echinochloa crus-galli” value was 80%. The “Weed suppression rate (%) Monochoria vaginalis” value in assay [4] was 40%.
With `Cc1ccc(S(=O)(=O)n2ncn(C(=O)N(c3ccc(Cl)cc3Br)C(C)C)c2=O)cc1` [Compound 11-649], the “Weed suppression rate (%) Lindemia pyxidaria” value in assay [1] turned out to be 70%. Also, in assay [2], the “Weed suppression rate (%) Scirpus juncoides” value turned out to be 60%. In addition, the “Weed suppression rate (%) Echinochloa crus-galli” value in assay [3] was found to be 90%. Further, in assay [4], the “Weed suppression rate (%) Monochoria vaginalis” value was 60%.
Regarding `CC(C)N(C(=O)n1cnn(S(=O)(=O)c2ccc(Cl)cc2)c1=O)c1ccc(F)cc1Cl` [Compound 11-595], in assay [1], the “Weed suppression rate (%) Lindemia pyxidaria” value amounted to 90%. The “Weed suppression rate (%) Scirpus juncoides” value in assay [2] was 60%. Further, in assay [3], the “Weed suppression rate (%) Echinochloa crus-galli” value came to 90%. In addition, the “Weed suppression rate (%) Monochoria vaginalis” value in assay [4] is given as 70%.
Consider `CC(C)N(C(=O)n1cnn(S(=O)(=O)c2c(F)cccc2F)c1=O)c1ccc(F)cc1Cl` [Compound 11-780], for which the “Weed suppression rate (%) Lindemia pyxidaria” value in assay [1] worked out at 100%. Further, the “Weed suppression rate (%) Scirpus juncoides” value in assay [2] is 100%. For the same compound, the “Weed suppression rate (%) Echinochloa crus-galli” value in assay [3] is 60%. Also, the “Weed suppression rate (%) Monochoria vaginalis” value in assay [4] was 60%.
Consider `CC(C)N(C(=O)n1cnn(S(=O)(=O)c2ccc(C(F)(F)F)cc2)c1=O)c1ccc(F)cc1F` [Compound 11-749], for which the “Weed suppression rate (%) Lindemia pyxidaria” value in assay [1] came out at 70%. Also, the “Weed suppression rate (%) Scirpus juncoides” value in assay [2] worked out at 70%. In assay [3], the “Weed suppression rate (%) Echinochloa crus-galli” value stood at 60%. For the same compound, the “Weed suppression rate (%) Monochoria vaginalis” value in assay [4] amounted to 70%.
For `CC(C)N(C(=O)n1cnn(S(=O)(=O)c2c(F)cccc2F)c1=O)c1ccc(C(F)(F)F)cc1F` [Compound 11-790], the “Weed suppression rate (%) Lindemia pyxidaria” value in assay [1] was 90%. In assay [2], the “Weed suppression rate (%) Scirpus juncoides” value was 90%. The “Weed suppression rate (%) Echinochloa crus-galli” value in assay [3] is 80%. Besides, the “Weed suppression rate (%) Monochoria vaginalis” value in assay [4] came out at 30%.
On to `CC(C)N(C(=O)n1cnn(S(=O)(=O)c2ccc(Cl)cc2)c1=O)c1ccccc1F` [Compound 11-578], for which the “Weed suppression rate (%) Lindemia pyxidaria” value in assay [1] is given as 80%. Besides, in assay [2], the “Weed suppression rate (%) Scirpus juncoides” value came to 90%. The “Weed suppression rate (%) Echinochloa crus-galli” value in assay [3] was found to be 90%. Moreover, the “Weed suppression rate (%) Monochoria vaginalis” value in assay [4] stood at 80%.
On to `Cc1cc(Cl)ccc1N(C(=O)n1cnn(S(=O)(=O)c2ccccc2Cl)c1=O)C(C)C` [Compound 11-527], for which the “Weed suppression rate (%) Lindemia pyxidaria” value in assay [1] worked out at 80%. Moreover, the “Weed suppression rate (%) Scirpus juncoides” value in assay [2] came out at 90%. Also, the “Weed suppression rate (%) Echinochloa crus-galli” value in assay [3] is 90%. Further, the “Weed suppression rate (%) Monochoria vaginalis” value in assay [4] was 80%.
As for `CC(C)N(C(=O)n1cnn(S(=O)(=O)c2ccc(C(C)(C)C)cc2)c1=O)c1ccc(Br)cc1Cl` [Compound 11-693], the “Weed suppression rate (%) Lindemia pyxidaria” value in assay [1] came to 60%. In addition, the “Weed suppression rate (%) Scirpus juncoides” value in assay [2] turned out to be 60%. In addition, the “Weed suppression rate (%) Echinochloa crus-galli” value in assay [3] turned out to be 80%. The “Weed suppression rate (%) Monochoria vaginalis” value in assay [4] was 60%.

These data come from patent publication US11076595B2, “1-(n,n-disubstituted carbamoyl) 4-(substituted sulfonyl)triazolin-5-one derivative, 4-(n,n-disubstituted carbamoyl) 1-(substituted sulfonyl)triazolin-5-one derivative, and herbicide containing said derivative as active ingredient” (HOKKO CHEMICAL INDUSTRY CO., LTD., priority 2017, dated 2021).
